For assay [1], the system named is B. subtilis WT168. Put plainly: MIC by CLSI broth micro-dilution, B. subtilis WT168. The assay is classed as cell-based. The note with it: Bacillus subtilis, read-out: Minimum inhibitory concentration. On the procedure: (§1) Aminoxy acids were synthesized by the standard peptide coupling procedures. Minimum inhibitory concentration was determined using CLSI broth micro-dilution method in 96-wells microtitre plates. Minimum inhibitory concentration is defined as the lowest concentration of the compound that inhibits visible growth of the bacteria. All experiments were performed three times. 24 compounds including aminoxy acid monomers and dipeptides have been identified to show toxicity against multidrug resistant Staphylococcus aureus Mu3 and summarized in Table 1. The minimum inhibitory concentration of compound 8 and compound 35 on other gram-positive bacteria was also evaluated and summarized in Table 2. […] As shown in FIGS. 3A-3B there are no observable hemolysis for compound 8 and compound 35 towards human red blood cell.
(§2) Bacteria were streaked from the glycerol stock into BHI agar and were incubated overnight. Single colony was picked for the overnight culture in cation-adjusted Mueller Hinton broth (CAMH), LB or BHI. The overnight culture was sub-cultured and regrew to exponential phase for the experiment.
(§3) MIC was determined by CLSI broth micro-dilution method in 96-wells microtitre plates. […] Optical density was recorded by DTX 880 multimode detector (Beckman Coulter, California, US). […]
On the technique in general: Dilution methods test growth across graded concentrations, often in twofold steps.

For assay [2], the system named is MRSA-USA300LAC. Put plainly: MIC by CLSI broth micro-dilution, MRSA-USA300LAC. The class given is cell-based. The note with it: Staphylococcus aureus, read-out: Minimum inhibitory concentration. As to the method:
as §1, §2, §3

Assay [3] has as its system M. smegmatis mc^2155. Put plainly: MIC by CLSI broth micro-dilution, M. smegmatis. The assay is classed as cell-based, Mycobacterium smegmatis. The note with it: Mycolicibacterium smegmatis; M. smegmatis mc^2155, BHI medium; read-out: Minimum inhibitory concentration. On the procedure:
as §1, §2, §3

The test system of assay [4] is pre-established Staphylococcus aureus ATCC 35556 biofilm. Put plainly: Reduction of established biofilm (crystal violet). The assay is classed as cell-based. The note with it: 24 hours pre-established biofilm treated 24 hours, concentration dependent. On the procedure: 24 hours pre-established Staphylococcus. aureus ATCC 35556 biofilm was treated with various concentrations of compound 8, compound 35 or 1% DMSO as negative control for 24 hours. Biofilm was quantified using crystal violet. The data were normalized to DMSO (100% biofilm) and represent average values±S.D. (n=9 per group). Statistical analysis was performed by ANOVA with Dunnett's post-test to calculate p-values adjusted for multiple comparisons with DMSO as control condition (*p<0.05; **p<0.01; ***p<0.001).
Briefly, overnight cultures of Staphylococcus aureus ATCC 35556 in TSB were diluted 1:100 and regrow for 2.5 hours at 37° C., 250 rpm. The bacteria were diluted 1:100 into fresh TSB and 200 μL bacteria in TSB was added to each well of a flat-bottom 96-well plate (200 μL/well). The plate was incubated at 37° C. for 24 hours to establish biofilms. After 24 hours, the supernatant was removed and washed by PBS (200 μL) 2 times. Premixed solution of TSB and compound was prepared in a separate 96-well-plate (200 μL/well; two-folded serial dilutions; final DMSO concentration of maximum 1%). 200 μL compound in TSB was transferred to the plates with established biofilms. […] Following a 1:4 dilution step (33% acetic acid), the optical density was measured at 595 nm by Beckman Coulter DTX 880 Multimode Detector. […]

Assay [5] concerns Staphylococcus aureus ATCC 29213. Put plainly: Scanning and transmission electron microscopy. The assay is classed as cell-based. To be noted: 24 hours treatment, SEM and TEM. On the procedure: FIGS. 16A-16B are the images showing the compound 8 and compound 35 can induced the cell burst of Staphylococcus aureus. (FIG. 16A) Cells are imaged under scanning electron microscope. (FIG. 16B) Cells are imaged under transmission electron microscope.
Briefly, an overnight culture of Staphylococcus aureus ATCC 29213 was sub-cultured 1:100 in fresh CAMH and regrown for 2 hours. Then the bacteria were treated with compound or DMSO negative control for 24 hours. The bacterial pellet was resuspended in PBS and loaded on 0.22 μm filter membrane. The bacteria were fixed on the membrane by 2.5% glutaraldehyde for overnight at 4° C. The filter membranes were washed by PBS and subsequently dehydrated using ethanol as shown below.
The samples were submitted to HKU Electron Microscope Unit (EMU) for critical point drying, mounting and coating of the specimens. Samples were then observed using LEO 1530 FEG Scanning Electron Microscope.
Briefly, an overnight culture of Staphylococcus aureus ATCC 29213 was sub-cultured 1:100 in fresh CAMH and regrown for 2 hours. Then the bacteria were treated with compound or negative control DMSO for 24 hours. The bacterial pellet was then washed by PBS and fixed in cacodylate buffer (0.1 M sodium cacodylate-HCl buffer pH 7.4) for 1 hour at 4° C. […]

The test system is the same in assay [6]. The assay is described as follows: Autolysis, optical density of culture. To be noted: 10×MIC, 24 hours. The assay is classed as cell-based. As to the method: Staphylococcus aureus ATCC 29213 in CAMH was challenged with […] compounds 8 or compound 35. OD595 was measured after 24 hours. Data represented the mean±S.D. of biological triplicates. Statistical analysis was performed by unpaired t test in 95% confidence interval (*=p<0.05; **p<0.01; ***p<0.001; ****[…]).
The overnight culture of Staphylococcus aureus ATCC 29213 was subcultured, regrown to exponential phase and then diluted to OD595=0.4. Bacteria were treated by 10×MIC of compound 8 and compound 35. At T=24 hour, OD595 was measured.

SMILES strings stand for the structures. ≈ marks a conversion by molar mass, not a printed value.

In the case of `CC(C)C[C@H](ONC(=O)[C@@H](COCc1ccccc1)ONC(=O)c1cc(C(F)(F)F)cc(C(F)(F)F)c1)C(=O)Nc1ccccc1` [Compound 8], the values for the MIC in assay [1], in assay [2] and in assay [3] were 3.13 µM (≈ 2.05 µg/mL), 3.13 µM (≈ 2.05 µg/mL) and 12.5 µM (≈ 8.19 µg/mL), respectively. Also, the “established Staphylococcus aureus biofilm” value in assay [4] is “significantly reduced”. In addition, the “cell morphology under electron microscope” value in assay [5] is “severe cell abnormality including cell burst and irregular shape of cell wall”. Also, in assay [6], the “optical density (OD595) of culture, accelerated autolysis” value was “reduction of the optical density”.
As to `CC(C)C[C@H](ONC(=O)[C@@H](COCc1ccccc1)ONC(=O)c1cc(C(F)(F)F)cc(C(F)(F)F)c1)C(=O)Nc1ccc2c(c1)OC(F)(F)O2` [Compound 35], the MIC in assay [1], in assay [2] and in assay [3] was 1.56 µM (≈ 1.15 µg/mL) throughout. In addition, in assay [4], the “established Staphylococcus aureus biofilm” value was “significantly reduced”. Besides, the “cell morphology under electron microscope” value in assay [5] is “severe cell abnormality including cell burst and irregular shape of cell wall”. For the same compound, the “optical density (OD595) of culture, accelerated autolysis” value in assay [6] was “reduction of the optical density”.

These data come from patent US20240315992A1, “AMINOXY ACID-BASED ANTIBACTERIAL COMPOUNDS AND METHODS THEREOF” (The University of Hong Kong, priority 2023, published 2024).
